Test results: PubChem BioAssay (NCI)
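Five compound concentrations were applied to cells in 96-well plates for 48 hours; endpoints were derived by simple linear interpolation of the resulting dose-response curve. The concentration for full growth arrest is given as TGI.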

What was measured:
Assay in all cases: NCI-60 cell line screen, 48 h
DU-145 prostate = system: DU-145 prostate
LOX IMVI melanoma = system: LOX IMVI melanoma
MDA-MB-231 breast = system: MDA-MB-231 breast
MDA-MB-435 = system: MDA-MB-435
NCI-H522 lung = system: NCI-H522 lung
PC-3 prostate = system: PC-3 prostate
RXF 393 renal = system: RXF 393 renal
SR leukemia = system: SR leukemia
T-47D breast = system: T-47D breast
SF-539 CNS = system: SF-539 CNS

| SMILES | TGI (DU-145 prostate) | TGI (LOX IMVI melanoma) | TGI (MDA-MB-231 breast) | TGI (MDA-MB-435) | TGI (NCI-H522 lung) | TGI (PC-3 prostate) | TGI (RXF 393 renal) | TGI (SR leukemia) | TGI (T-47D breast) | TGI (SF-539 CNS) |
| --- | --- | --- | --- | --- | --- | --- | --- | --- | --- | --- |
| Cc1cc2c(cc1-c1cc3c(cc1C)C(C(C)C)=C(O)C(=O)/C3=C\Nc1cccc3c(N)cccc13)/C(=C/Nc1cccc3c(N)cccc13)C(=O)C(O)=C2C(C)C | > 100 µM | > 100 µM | > 100 µM | > 100 µM | > 100 µM | > 100 µM | > 100 µM | > 100 µM | > 100 µM | – |
| CC(=O)Nc1ccccc1S(=O)(=O)c1c(-c2c(C)c(Cl)c(C)c(Cl)c2C)noc1C | > 100 µM | – | 88 µM | > 100 µM | > 100 µM | > 100 µM | > 100 µM | 43.2 µM | > 100 µM | – |
| OCC1OC(NC(=S)NCSCCC(F)(F)C(F)(F)C(F)(F)C(F)(F)C(F)(F)C(F)(F)F)C(O)C(O)C1O (configuration not stated) | > 100 µM | > 100 µM | > 100 µM | > 100 µM | – | > 100 µM | > 100 µM | > 100 µM | > 100 µM | 47.2 µM |
| Brc1ccc(C2(N3CCCCC3)CCCCC2)s1 | > 100 µM | 29 µM | > 100 µM | 73.3 µM | > 100 µM | > 100 µM | 33.3 µM | 44.3 µM | 49.5 µM | – |
| CN(C)c1ccc(C=Nc2ccc(-c3nc4ccccc4o3)cc2)cc1 | > 100 µM | > 100 µM | > 100 µM | > 100 µM | > 100 µM | 97.9 µM | – | > 100 µM | 58.3 µM | > 100 µM |
| O=C1c2cc([N+](=O)[O-])cnc2S(=O)(=O)N1c1ccc(Oc2ccccc2)cc1 | > 100 µM | > 100 µM | > 100 µM | > 100 µM | > 100 µM | > 100 µM | > 100 µM | > 100 µM | > 100 µM | – |
| CCC1c2[nH]c3ccccc3c2C[C@H]2C(=O)NC(Cc3ccccc3)C(=O)N12 (some centres not stated) | > 100 µM | 45.8 µM | 46.2 µM | 43.8 µM | 46.6 µM | 58.2 µM | 53.6 µM | 53.8 µM | 73.1 µM | – |
| COc1ccc2[nH]c3c(c2c1)CCc1ccccc1-3 | > 100 µM | > 100 µM | 76.1 µM | > 100 µM | 79.7 µM | > 100 µM | – | > 100 µM | > 100 µM | 32.1 µM |
| O=C1C(c2c(O)n(-c3ccccc3)c3ccccc23)=Nc2ccccc21 | > 100 µM | > 100 µM | 81.5 µM | > 100 µM | > 100 µM | 80.9 µM | 41.6 µM | > 100 µM | 71.9 µM | – |
| O=[N+]([O-])c1ccc2nc(/C=C(\O)c3ccccc3)c(/C=C(\O)c3ccc(Cl)cc3)nc2c1 | > 100 µM | – | > 100 µM | > 100 µM | 79.7 µM | > 100 µM | 83.9 µM | > 100 µM | > 100 µM | > 100 µM |
| c1ncc(C23C4C5C6C4C2C6C53)[nH]1 (configuration not stated) | > 100 µM | > 100 µM | > 100 µM | > 100 µM | – | > 100 µM | > 100 µM | > 100 µM | > 100 µM | > 100 µM |
| Nc1cccc2cc(S(=O)(=O)Nc3ccc(C(=O)O)cc3)ccc12 | > 100 µM | > 100 µM | > 100 µM | > 100 µM | > 100 µM | > 100 µM | > 100 µM | > 100 µM | > 100 µM | – |
| COc1ccc2c(c1)OCC1Cc3cccc(OC)c3OC21 (configuration not stated) | > 100 µM | > 100 µM | > 100 µM | > 100 µM | > 100 µM | > 100 µM | – | > 100 µM | > 100 µM | > 100 µM |
| COc1cc(/C=C2\N=C(c3ccccc3)N(/N=C/c3cc4cc(C)ccc4nc3Cl)C2=O)ccc1O | > 100 µM | > 100 µM | > 100 µM | 36.7 µM | – | 50.1 µM | > 100 µM | 47.1 µM | > 100 µM | > 100 µM |
| COC(=O)/C=C(\S/C(=C(/c1ccccc1)n1cc(C(=O)OC)c(C(=O)OC)n1)c1ccccc1)C(=O)OC | 29.1 µM | 21.4 µM | 44.6 µM | 32.9 µM | – | 32.2 µM | 31.4 µM | 32.6 µM | 14.1 µM | 32.4 µM |
| CC(=O)NC1C(OCc2ccccc2)OC(CO)C(O)C1OCC(=O)NC(C)C(=O)NC(CCC(=O)Nc1ccc2c(c1)CN1C(=O)c3ccccc3C1=N2)C(N)=O (configuration not stated) | > 100 µM | > 100 µM | > 100 µM | > 100 µM | – | > 100 µM | > 100 µM | > 100 µM | > 100 µM | > 100 µM |
| COC(=O)[C@H]1[C@H](OC(=O)[C@@H](OC)c2ccccc2)ON2CC[C@@H](OC(=O)c3ccccc3)[C@H]12 | > 100 µM | > 100 µM | > 100 µM | > 100 µM | 7.59 µM | > 100 µM | > 100 µM | > 100 µM | > 100 µM | – |
